Literature values as cited in US20080311054A1, “Compositions and Methods to Counteract Oral Malodour” (GIVAUDAN SA, priority 2005, published 2008).

Tested on: microorganisms such as yeasts
Conditions: WO 99/51093

In the case of `CCCCCCCCO` [octanol], the “effect (killing microorganisms such as yeasts)” value is listed as “no effect”.
